IC50, inhibition and EC50 data for eight molecules are collected here from patent US8816082B2, “Heterocyclyl-pyridinyl-based biphosphonic acid, pharmaceutically acceptable salt thereof, composition thereof and method of use thereof” (The Royal Institution for the Advancement of …, priority 2010, dated 2014).

Usually IC50 stands for the point on the concentration scale where inhibition reaches its midpoint. High values mean weaker potency, low ones greater potency.

Where two headings read alike, the source gives them in different places.

Assay [1] addresses T1, human farnesyl pyrophosphate synthase (hFPPS) (Homo sapiens, UniProt P14324).
T1 sequence (P14324 1-419): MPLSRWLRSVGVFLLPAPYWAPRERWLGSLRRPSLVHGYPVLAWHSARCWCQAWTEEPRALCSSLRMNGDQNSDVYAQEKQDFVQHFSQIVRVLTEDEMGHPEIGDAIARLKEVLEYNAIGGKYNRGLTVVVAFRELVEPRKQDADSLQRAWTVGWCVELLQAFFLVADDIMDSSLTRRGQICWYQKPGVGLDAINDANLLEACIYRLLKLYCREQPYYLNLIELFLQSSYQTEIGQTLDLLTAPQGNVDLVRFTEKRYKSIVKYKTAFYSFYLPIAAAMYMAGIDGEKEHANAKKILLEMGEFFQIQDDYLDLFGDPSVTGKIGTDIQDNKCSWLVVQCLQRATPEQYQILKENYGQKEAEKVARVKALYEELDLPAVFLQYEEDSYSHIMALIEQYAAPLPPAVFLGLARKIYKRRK
Put plainly: In vitro enzymatic inhibition assay for hFPPS, initial screening conditions (partly purified enzyme, 5 min pre-incubation). The format is biochemical.

In assay [2] the test system is multiple myeloma JJN3 cells. Nature of the assay: Anti-proliferation assay (MTT), multiple myeloma JJN3 cells. The format is cell-based. The conditions noted are these: Homo sapiens. The method, then:
(§1) In addition, select compounds were tested in anti-proliferation assays using multiple myeloma JJN3 cells and breast cancer MCF-7 cells. Cells were cultured with either an hFPPS inhibitor (i.e. representative Examples 1 to 42) at increasing concentrations (from 10 nM to 100 μM) or a vehicle control.

The test system of assay [3] is breast cancer MCF-7 cells. Put plainly: Anti-proliferation assay (MTT), breast cancer MCF-7 cells. The format is cell-based. The conditions noted are these: Homo sapiens, MCF7, read-out: % inhibition of breast cancer MCF-7 cell proliferation at 50 μM inhibitor, 24 h, vs vehicle control, averages of four determinations. The method, then: as §1
Assay [4] addresses T2, hFPPS (Homo sapiens, UniProt P14324).
T2 sequence (P14324 1-419): T1 sequence (P14324 1-419)
Put plainly: hFPPS IC50 determination under more optimised conditions (Table 4).

Assay [5] has as its target T2, hFPPS. Put plainly: hFPPS inhibition, high throughput mode at fixed concentration, more optimized assay (purer hFPPS, 10 min pre-incubation). The conditions noted are these: read-out: % Inhibition at 1 μM.
Assay [6] concerns NCI-H460 cells (lung large cell carcinoma). Nature of the assay: Cell growth inhibition assay (MTT), NCI-H460 cells. The conditions noted are these: Homo sapiens, 96 h, 4 days, preliminary data, read-out: EC50 (inhibition of cell proliferation). The format is cell-based.
Where [7] appears, read: JJN-3, read-out: % inhibition of MM JJN3 cell proliferation at 50 μM inhibitor, 24 h, vs vehicle control, averages of four determinations.
Where [8] appears, read: JJN-3, read-out: % inhibition of MM JJN3 cell proliferation at 50 μM inhibitor, 48 h, vs vehicle control, averages of four determinations.

In the case of `O=P(O)(O)C(F)(Cc1cncc(-c2ccc3[nH]ncc3c2)c1)P(=O)(O)O` [Compound 7], the concentration for half-maximal inhibition (IC50) in assay [1] turned out to be 640 nM; at hFPPS [4], 150 nM. For the same molecule, the inhibition at 50 µM in assay [2] (setting [7]) is 28%; in assay [2] (setting [8]) it was 19%; in assay [3], 20%.
Take `O=P(O)(O)C(Nc1cccc(-c2ccccc2)n1)P(=O)(O)O` [Compound 12]: the inhibition at 1 µM on hFPPS [5] stood at 35%.
As for `O=P(O)(O)C(Nc1cc(-c2ccc3[nH]ncc3c2)ccn1)P(=O)(O)O` [Compound 14], the inhibition at 1 µM on hFPPS [5] worked out at 45%.
On the same count and under the same terms, the result for `O=P(O)(O)C(Nc1cc(-c2ccc3ccccc3c2)ccn1)P(=O)(O)O` [Compound 26] reads 65%.
Regarding `O=P(O)(O)C(Nc1ncccc1Br)P(=O)(O)O` [Compound 36], the inhibition at 50 µM in assay [2] (setting [7]) is 15%; in assay [2] (setting [8]), 26%; in assay [3], 25%. The molecule further gave an IC50 on hFPPS [4] of 180 nM.
In the case of `O=P(O)(O)C(Nc1cc(-c2ccc(Cl)cc2)ccn1)P(=O)(O)O` [Compound 40], at hFPPS [5], the inhibition at 1 µM stood at 90%.
Regarding `O=P(O)(O)C(Nc1cc(-c2ccc(F)cc2)ccn1)P(=O)(O)O` [Compound 42], the inhibition at 1 µM on hFPPS [5] was 95%.
As for `O=P(O)(O)C(O)(Cc1cccnc1)P(=O)(O)O` [Risedronate, reference compound], the EC50 in assay [6] fell in the range of 80000 to 100000 nM. The inhibition at 50 µM in assay [2] (setting [7]) is 9%; in assay [2] (setting [8]) it was 17%; in assay [3], 16%.
